Experimental data reported in US20240246946A1, “MODULATORS OF TREX1” (Constellation Pharmaceuticals, Inc., priority 2021, published 2024).

Tests used:
[1] = biological target: T1, full length mouse TREX1 (Mus musculus, UniProt Q91XB0); assay: mTREX1 Biochemical Assay (fluorescence, dsDNA substrate degradation); details: biochemical, read-out: mTREX1 IC50
T1 construct: N-terminally His-Tev tagged full length mouse TREX1; made in house; host or cells: E. coli
T1 sequence (Q91XB0 1-314): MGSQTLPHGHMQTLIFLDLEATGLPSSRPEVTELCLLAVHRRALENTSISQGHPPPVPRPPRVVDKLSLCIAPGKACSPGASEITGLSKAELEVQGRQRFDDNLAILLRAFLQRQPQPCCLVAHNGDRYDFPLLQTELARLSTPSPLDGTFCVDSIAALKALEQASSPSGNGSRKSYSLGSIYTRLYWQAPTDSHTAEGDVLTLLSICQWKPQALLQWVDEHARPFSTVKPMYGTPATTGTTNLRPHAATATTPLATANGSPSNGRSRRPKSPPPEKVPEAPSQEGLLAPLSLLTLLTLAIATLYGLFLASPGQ
Protocol: (§1) Degradation of the dsDNA liberates free fluorophore to produce a fluorescent signal. Specifically, 7.5 μL of N-terminally His-Tev tagged full length mouse TREX1 (expressed in E. coli and purified in house) in reaction buffer (50 mM Tris, 150 mM NaCl, 2 mM DTT, 0.1 mg/mL BSA, 0.01% (w/v) Tween-20, 5 mM MgCl2, pH 7.4) was added to a 384-well Black ProxiPlate Plus (PerkinElmer) which already contained compound (150 nL) at varying concentrations as a 10 point dose-response in DMSO. The plate was incubated at 25° C. for 4 hours. Reactions were initiated by adding 7.5 μL of dsDNA substrate (Strand A: 5′ TEX615/GCT AGG CAG 3′; Strand B: 5′ CTG CCT AGC/IAbRQSp (Integrated DNA Technologies)) in reaction buffer. Final concentrations were 6 pM TREX1, 60 nM dsDNA substrate in reaction buffer with 1.0% DMSO (v/v). After 18 hours at 25° C., reactions were quenched by the addition of 2 μL of 500 mM EDTA.

[2] = biological target: T2, full length human TREX1 (Homo sapiens, UniProt Q9NSU2); assay: hTREX1 Biochemical Assay (fluorescence, dsDNA substrate degradation); details: biochemical, read-out: hTREX1 IC50
T2 construct: N-terminally His-Tev tagged full length human TREX1; made in house; host or cells: E. coli
T2 sequence (Q9NSU2 1-314): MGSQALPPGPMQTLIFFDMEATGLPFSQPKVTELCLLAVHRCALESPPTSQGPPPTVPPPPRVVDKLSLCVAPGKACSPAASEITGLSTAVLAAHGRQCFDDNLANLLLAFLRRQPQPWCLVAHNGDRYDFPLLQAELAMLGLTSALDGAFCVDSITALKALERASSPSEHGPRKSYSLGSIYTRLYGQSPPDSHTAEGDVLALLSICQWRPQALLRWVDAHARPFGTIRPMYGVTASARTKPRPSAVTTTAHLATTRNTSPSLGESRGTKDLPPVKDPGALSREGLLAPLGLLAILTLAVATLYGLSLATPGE
Protocol: as §1, with “length human” for “length mouse”, “were 4” for “were 6”

IC50 [1] [nM] | IC50 [2] [nM] | Compound
> 10 | 1 to 10 | CC(c1nc(C(=O)Nc2cnoc2)c(O)c(=O)n1C)C(c1cnn(CCO)c1)c1ccccc1C#N (single isomer, unassigned) [Example 35 D2E1]
> 10 | > 10 | CC(c1nc(C(=O)Nc2cnoc2)c(O)c(=O)n1C)C(c1cnn(CCN2CCNCC2)c1)c1ccccc1C#N (single isomer, unassigned) [Example 31 D2E2]
> 10 | > 10 | COCCn1cc(C(c2cc(F)c(F)cc2Cl)C(C)c2nc(C(=O)Nc3cnoc3)c(O)c(=O)n2C)cn1 (single isomer, unassigned) [Example 73 D1E2]
> 10 | > 10 | CCn1cc(C(c2ccc(F)cc2C#N)C(C)c2nc(C(=O)Nc3cnoc3)c(O)c(=O)n2C)cn1 (single isomer, unassigned) [Example 16 D2E2]
> 10 | > 10 | Cc1ccn(C(c2ccccc2Cl)C(C)c2nc(C(=O)Nc3cnoc3)c(O)c(=O)n2C)n1 (single isomer, unassigned) [Example 49 D1E2]
> 10 | 1 to 10 | CCn1cc(C(c2ccccc2C#N)C(C)c2nc(C(=O)Nc3cnoc3)c(O)c(=O)n2C)c(C)n1 (single isomer, unassigned) [Example 70 D2E1]
> 10 | > 10 | COCCn1cc(C(c2ccccc2C#N)C(C)c2nc(C(=O)Nc3cnoc3)c(O)c(=O)n2C)cn1 (single isomer, unassigned) [Example 9 D2E2]
> 10 | > 10 | CC(c1nc(C(=O)Nc2cnoc2)c(O)c(=O)n1C)C(c1cnn(C)c1)c1ccc(C(=O)N(C)C)cc1C#N (single isomer, unassigned) [Example 11 D2E2]
> 10 | > 10 | COCCn1cc(C(c2cc(F)c(F)cc2Cl)C(C)c2nc(C(=O)Nc3cnoc3)c(O)c(=O)n2C)cn1 (single isomer, unassigned) [Example 73 D2E2]
> 10 | > 10 | CC(c1nc(C(=O)Nc2cnoc2)c(O)c(=O)n1C)C(c1cn(C)cn1)c1ccccc1C#N (single isomer, unassigned) [Example 39 D1E2]
> 10 | > 10 | CC(c1nc(C(=O)Nc2cnoc2)c(O)c(=O)n1C)C(c1cnn(CCN(C)C)c1)c1ccccc1C#N (single isomer, unassigned) [Example 33 D2E2]
> 10 | > 10 | CC(c1nc(C(=O)Nc2cnoc2)c(O)c(=O)n1C)C(c1cn(C)cn1)c1ccccc1C#N (single isomer, unassigned) [Example 39 D1E1]
> 10 | > 10 | CCn1ncc(C(c2ccccc2C#N)C(C)c2nc(C(=O)Nc3cnoc3)c(O)c(=O)n2C)c1C (single isomer, unassigned) [Example 68 D1E2]
> 10 | > 10 | CCn1cc(C(c2ccccc2C#N)C(C)c2nc(C(=O)Nc3cnoc3)c(O)c(=O)n2C)c(C)n1 (single isomer, unassigned) [Example 70 D1E2]
> 10 | > 10 | CC(c1nc(C(=O)Nc2cnoc2)c(O)c(=O)n1C)C(c1cocn1)c1ccccc1C#N (single isomer, unassigned) [Example 50 D1E2]
> 10 | > 10 | CC(c1nc(C(=O)Nc2cnoc2)c(O)c(=O)n1C)C(c1cnn(C)c1)c1ccccc1C#N (single isomer, unassigned) [Example 2 D2E1]
> 10 | > 10 | CC(c1nc(C(=O)Nc2cnoc2)c(O)c(=O)n1C)C(c1cnn(C)c1)c1cc(F)ccc1C#N (single isomer, unassigned) [Example 14 D2E2]

IC50 [1] [nM] | IC50 [2] [nM] | Compound
> 10 | > 10 | CC(c1nc(C(=O)Nc2cnoc2)c(O)c(=O)n1C)C(c1cnn(C)c1)c1cc(F)c(F)cc1Cl (single isomer, unassigned) [Example 28 D2E2]
> 10 | > 10 | CC(c1nc(C(=O)Nc2cnoc2)c(O)c(=O)n1C)C(c1cnn(CCN(C)C)c1)c1ccccc1C#N (single isomer, unassigned) [Example 33 D2E1]
> 10 | > 10 | CC(c1nc(C(=O)Nc2cnoc2)c(O)c(=O)n1C)C(c1ccccc1C#N)c1nnnn1C (single isomer, unassigned) [Example 131 D2E2]
> 10 | > 10 | Cc1nn(C)cc1C(c1cc(F)ccc1C#N)C(c1nc(C(=O)Nc2cnoc2)c(O)c(=O)n1C)C(F)(F)F (single isomer, unassigned) [Example 42 D1E1]
> 10 | < 1 | CCn1ncc(C(c2ccc(F)cc2C#N)C(C)c2nc(C(=O)Nc3cnoc3)c(O)c(=O)n2C)c1C (single isomer, unassigned) [Example 65 D2E2]
> 10 | > 10 | Cc1nn(C)cc1C(c1ccccc1C#N)C(c1nc(C(=O)Nc2cnoc2)c(O)c(=O)n1C)C(F)(F)F (single isomer, unassigned) [Example 41 D2E2]
> 10 | > 10 | CC(c1nc(C(=O)Nc2cnoc2)c(O)c(=O)n1C)C(c1cnn(C)c1)c1ccc(F)cc1C#N (single isomer, unassigned) [Example 15 D1E2]
> 10 | > 10 | COCCn1cc(C(c2ccccc2C#N)C(C)c2nc(C(=O)Nc3cnoc3)c(O)c(=O)n2C)cn1 (single isomer, unassigned) [Example 9 D1E2]
> 10 | > 10 | CC(c1nc(C(=O)Nc2cnoc2)c(O)c(=O)n1C)C(c1cnn(C)c1)c1ccc(Cl)cc1C#N (single isomer, unassigned) [Example 27 D2E1]
> 10 | 1 to 10 | CC(c1nc(C(=O)Nc2cnoc2)c(O)c(=O)n1C)C(c1cnn(CCN2CCN(C)CC2)c1)c1ccccc1C#N (single isomer, unassigned) [Example 32 D1E2]
> 10 | > 10 | CC(c1nc(C(=O)Nc2cnoc2)c(O)c(=O)n1C)C(c1cnn(CC(F)(F)F)c1)c1ccccc1C#N (single isomer, unassigned) [Example 22 D1E2]
> 10 | > 10 | Cc1nc(C)c(C(c2ccccc2C#N)C(C)c2nc(C(=O)Nc3cnoc3)c(O)c(=O)n2C)nc1C (single isomer, unassigned) [Example 122 D2E2]
> 10 | > 10 | Cc1cncc(C(c2ccccc2C#N)C(C)c2nc(C(=O)Nc3cnoc3)c(O)c(=O)n2C)n1 (single isomer, unassigned) [Example 53 D1E1]
> 10 | > 10 | COCCn1cc(C(c2cc(F)ccc2C#N)C(C)c2nc(C(=O)Nc3cnoc3)c(O)c(=O)n2C)cn1 (single isomer, unassigned) [Example 18 D1E1]
> 10 | > 10 | COCCn1cc(C(c2ccccc2C#N)C(C)c2nc(C(=O)Nc3cnoc3)c(O)c(=O)n2C)c(C)n1 (single isomer, unassigned) [Example 71 D1E2]
> 10 | > 10 | CCn1cc(C(c2ccccc2C#N)C(C)c2nc(C(=O)Nc3cnoc3)c(O)c(=O)n2C)c(C)n1 (single isomer, unassigned) [Example 70 D2E2]
> 10 | > 10 | CC(c1nc(C(=O)Nc2cnoc2)c(O)c(=O)n1C)C(c1cnn(C)c1)c1cc(C(F)(F)F)ccc1C#N (single isomer, unassigned) [Example 29 D1E2]
